Measured values from patent US10030027B2, “Soluble guanylate cyclase stimulators” (MERCK SHARP & DOHME CORP., priority 2015, dated 2018).

Target: sGC α1/β1 heterodimer (Homo sapiens (Human), UniProt Q02108+Q02153)
Assay: Cell-based sGC functional assay (cyclic GMP assay for sGC activator: CASA assay)
Set-up: % Activation: concentration or dose not given beside the values
Conditions: CHO-K1/sGC cells; for Emax: CHO-K1, activity expressed as percentage of compound A (standard), read-out: % Activation; for EC50: inflection point, 4P fit, read-out: IP
From the text: Cell-Based sGC Functional Assay (Cyclic GMP Assay for sGC Activator: CASA Assay)
Soluble guanylate cyclase (sGC) is a heme-containing enzyme that converts GTP to secondary messenger cGMP. Increases in cGMP levels affect several physiological processes including vasorelaxation through multiple downstream pathways. […] Heme-dependent activators (HDAs) preferentially activate sGC containing a ferrous heme group. To determine the effect of sGC activators on enzyme activity, the CASA assay was developed to monitor the generation of cGMP in a cell line that stably expresses the heterodimeric sGC protein.
A CHO-K1 cell line stably expressing the sGC α1/β1 heterodimer was generated using a standard transfection protocol. CHO-K1 cells were transfected with plasmids pIREShyghsGCα1 and pIRESneo-hsGCβ1 simultaneously using FUGENE reagent. Clones that stably express both subunits were selected with hygromycin and neomycin for ˜2 weeks. Clone #7 was chosen for the assay and was designated CHO-K1/sGC. CHO-K1/sGC cells were maintained in F-K12 medium containing 10% heat-inactivated Fetal Bovine Serum (FBS), 100 μg/mL penicillin/streptomycin, 0.5 mg/mL hygromycin and 0.25 mg/mL G418. The cells were then cryopreserved in LN2. On the day of the assay, the cells were thawed and resuspended in EBSS Assay Buffer (Sigma, E3024) supplemented with 5 mM MgCl2, 10 mM HEPES (4-(2-hydroxyethyl)piperazine-1-ethanesulfonic acid) and 0.05% BSA (bovine serum albumin) (EAB) and cell density was then adjusted to 2.25×10^5/mL with EAB. IBMX (3-isobutyl-1-methylxanthin, 0.5 mM) was added to inhibit degradation of cGMP. Compounds were diluted from DMSO stock solutions and added to the assay at a final DMSO concentration of 2.5%. Cells were pre-incubated in the presence and absence of 1 μM of Diethylenetriamine/nitric oxide adduct (DETA-NO; Sigma, 17018) for 30 min at 25° C. Compounds are subsequently added and incubated for 1 hr at 37° C. At the end of the incubation period, the reaction was terminated and the cells were lysed with the detection reagents from Cisbio Kits. The level of intracellular cGMP was determined using an HTRF-based assay kit (CisBio, 62GM2PEC), which detects the displacement of a fluorescence labeled cGMP from its specific antibody. The cGMP produced by test compounds was directly compared to the maximum cGMP production (this value was set to equal 100% activation.) of the published sGC-HDA compound A:
(Example 1 in WO 2010/065275, published Jun. 10, 2010). The test compounds' activity were then expressed as a percentage of compound A, the standard in every experiment. This percent activation was calculated either in the presence or absence of DETA-NO which was then plotted. Inflection points (IP) and maximum fold induction was derived using Abase analysis software for 4P fit.

sGC α1/β1 heterodimer, sequence (Q02108 whole entry): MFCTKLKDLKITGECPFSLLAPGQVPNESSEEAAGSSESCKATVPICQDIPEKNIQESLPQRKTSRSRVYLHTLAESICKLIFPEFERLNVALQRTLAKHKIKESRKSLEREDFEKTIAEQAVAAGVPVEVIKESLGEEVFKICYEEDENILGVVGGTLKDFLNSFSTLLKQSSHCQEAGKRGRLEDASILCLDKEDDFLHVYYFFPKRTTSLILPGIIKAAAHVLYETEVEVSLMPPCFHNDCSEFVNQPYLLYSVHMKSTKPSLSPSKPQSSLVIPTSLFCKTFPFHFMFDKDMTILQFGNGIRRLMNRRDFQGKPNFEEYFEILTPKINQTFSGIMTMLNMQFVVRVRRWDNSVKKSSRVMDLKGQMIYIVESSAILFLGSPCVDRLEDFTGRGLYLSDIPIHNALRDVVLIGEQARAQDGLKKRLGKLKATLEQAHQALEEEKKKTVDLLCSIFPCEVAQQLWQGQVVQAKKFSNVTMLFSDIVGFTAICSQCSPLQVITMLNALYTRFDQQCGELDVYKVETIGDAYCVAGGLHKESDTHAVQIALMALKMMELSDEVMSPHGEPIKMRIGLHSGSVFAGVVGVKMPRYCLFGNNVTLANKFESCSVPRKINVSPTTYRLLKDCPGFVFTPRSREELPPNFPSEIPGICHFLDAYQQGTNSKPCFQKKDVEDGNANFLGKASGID
sGC α1/β1 heterodimer, sequence (Q02153 whole entry): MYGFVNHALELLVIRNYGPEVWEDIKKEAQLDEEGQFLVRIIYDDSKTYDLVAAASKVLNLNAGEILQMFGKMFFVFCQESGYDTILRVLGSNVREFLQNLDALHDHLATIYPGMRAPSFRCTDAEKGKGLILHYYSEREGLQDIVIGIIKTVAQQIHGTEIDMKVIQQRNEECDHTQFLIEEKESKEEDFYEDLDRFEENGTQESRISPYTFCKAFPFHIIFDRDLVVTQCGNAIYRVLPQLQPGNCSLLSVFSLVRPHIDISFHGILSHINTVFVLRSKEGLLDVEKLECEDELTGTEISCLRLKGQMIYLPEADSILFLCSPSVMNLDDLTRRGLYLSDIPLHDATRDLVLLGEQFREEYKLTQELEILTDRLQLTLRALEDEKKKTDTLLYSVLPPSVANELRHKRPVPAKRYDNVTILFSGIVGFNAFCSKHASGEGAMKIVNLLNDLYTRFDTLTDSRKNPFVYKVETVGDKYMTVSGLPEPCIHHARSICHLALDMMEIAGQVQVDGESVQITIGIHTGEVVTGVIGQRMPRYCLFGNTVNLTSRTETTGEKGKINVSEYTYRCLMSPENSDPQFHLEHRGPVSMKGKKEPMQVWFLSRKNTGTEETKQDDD

In the case of `CC(C)(Cc1coc(C2(C)C(=O)Nc3nc(-c4nn(Cc5ccccc5F)c5ccc(Cl)cc45)nc(N)c32)n1)C(=O)O` (stereo not shown) [Example 74A, 3-(2-{4-amino-2-[5-chloro-1-(2-fluorobenzyl)-1H-indazol-3-yl]-5-methyl-6-oxo-6,7-dihydro-5H-pyrrolo[2,3-d]pyrimidin-5-yl}oxazol-4-yl)-2,2-dimethylpropanoic acid], the Emax is reported as 94% and the EC50 is reported as 62 nM.
`C[C@@]1(c2ccc(CCC(=O)O)cc2)C(=O)Nc2nc(-c3nn(Cc4ccc(F)cc4)c4cc(Cl)ccc34)nc(N)c21` [Example 65B, (S)-3-(4-{4-amino-2-[6-chloro-1-(4-fluorobenzyl)-1H-indazol-3-yl]-5-methyl-6-oxo-6,7-dihydro-5H-pyrrolo[2,3-d]pyrimidin-5-yl}phenyl)propanoic acid] was tested, and the Emax was 136% and the EC50 was 1100 nM.
`CC1(c2cn(CCC(=O)O)nn2)C(=O)Nc2nc(-c3nn(CCC(F)(F)C(F)(F)F)c4cc(Cl)ccc34)nc(N)c21` (stereo not shown) [Example 29B, 3-(4-{4-amino-2-[6-chloro-1-(3,3,4,4,4-pentafluorobutyl)-1H-indazol-3-yl]-5-methyl-6-oxo-6,7-dihydro-5H-pyrrolo[2,3-d]pyrimidin-5-yl}-1H-1,2,3-triazol-1-yl)propanoic acid] showed an Emax of 82%.
Work on `C[C@H](O)[C@@H](NC(=O)CCc1ccc([C@]2(C)C(=O)Nc3nc(-c4nn(Cc5ccccc5F)c5ncccc45)nc(N)c32)cc1)C(=O)O` [Example 107B, (5S)-(3-(4-{4-amino-2-[1-(2-fluorobenzyl)-1H-pyrazolo[3,4-b]pyridin-3-yl]-5-methyl-6-oxo-6,7-dihydro-5H-pyrrolo[2,3-d]pyrimidin-5-yl}phenyl)propanoyl)-D-threonine] yielded an Emax of 113% and an EC50 of 397 nM.
In the case of `Cc1sc(C2(C)C(=O)Nc3nc(-c4nn(CCC(F)(F)C(F)(F)F)c5cc(Cl)ccc45)nc(N)c32)nc1-c1ccc(C(=O)O)cc1` (stereo not shown) [Example 94B, 4-(2-{4-amino-2-[6-chloro-1-(3,3,4,4,4-pentafluorobutyl)-1H-indazol-3-yl]-5-methyl-6-oxo-6,7-dihydro-5H-pyrrolo[2,3-d]pyrimidin-5-yl}-5-methyl-1,3-thiazol-4-yl)benzoic acid], the Emax is reported as 108% and the EC50 is reported as 178 nM.
Work on `CC1(c2nn(C(C)(C)C(=O)O)c(=O)o2)C(=O)Nc2nc(-c3nn(CCC(F)(F)C(F)(F)F)c4cc(Cl)ccc34)nc(N)c21` (single isomer, unassigned) [Example 99B, 2-[5-{4-Amino-2-[6-chloro-1-(3,3,4,4,4-pentafluorobutyl)-1H-indazol-3-yl]-5-methyl-6-oxo-6,7-dihydro-5H-pyrrolo[2,3-d]pyrimidin-5-yl}-2-oxo-1,3,4-oxadiazol-3(2H)-yl]-2-methylpropanoic acid] yielded an EC50 of 186 nM.
For `CC1CCC(Cn2nc(-c3nc(N)c4c(n3)NC(=O)C4(C)c3nc(CC(C)(C)C(=O)O)co3)c3ccc(F)cc32)CC1` (racemic) [Example 137AB, 3-{2-[4-amino-2-{6-fluoro-1-[4-methylcyclohexylmethyl]-1H-indazol-3-yl}-5-methyl-6-oxo-6,7-dihydro-5H-pyrrolo[2,3-d]pyrimidin-5-yl]-1,3-oxazol-4-yl}-2,2-dimethylpropanoic acid], the “% Activation” value (activity expressed as percentage of compound A (standard)) was 98.4%.
In the case of `CC1(c2nc(CCC(=O)O)co2)C(=O)Nc2nc(-c3nn(Cc4ccccc4F)c4ccccc34)nc(N)c21` (stereo not shown) [Example 54A, 3-(2-{4-amino-2-[1-(2-fluorobenzyl)-1H-indazol-3-yl]-5-methyl-6-oxo-6,7-dihydro-5H-pyrrolo[2,3-d]pyrimidin-5-yl}oxazol-4-yl)propanoic acid], the Emax is reported as 106% and the EC50 is reported as 490 nM.
Compound `Cc1ccc2c(-c3nc(N)c4c(n3)NC(=O)[C@@]4(C)c3nc(CC(C)(C)C(=O)O)cs3)nn(Cc3ccc(C)c(F)c3F)c2n1` [Example 75A, (S)-3-(2-{4-amino-2-[1-(2,3-difluoro-4-methylbenzyl)-6-methyl-1H-pyrazolo[3,4-b]pyridin-3-yl]-5-methyl-6-oxo-6,7-dihydro-5H-pyrrolo[2,3-d]pyrimidin-5-yl}thiazol-4-yl)-2,2-dimethylpropanoic acid] has an Emax of 155% and an EC50 of 238 nM.
`CC(C)(Cc1coc(C2(C)C(=O)Nc3nc(-c4nn(Cc5ccccc5F)c5ccccc45)nc(N)c32)n1)C(=O)O` (stereo not shown) [Example 56A, 3-(2-{4-amino-2-[1-(2-fluorobenzyl)-1H-indazol-3-yl]-5-methyl-6-oxo-6,7-dihydro-5H-pyrrolo[2,3-d]pyrimidin-5-yl}oxazol-4-yl)-2,2-dimethylpropanoic acid] was tested, and the Emax was 116% and the EC50 was 134 nM.
In the case of `C[C@@H](NC(=O)CCc1ccc([C@]2(C)C(=O)Nc3nc(-c4nn(Cc5ccccc5F)c5ncccc45)nc(N)c32)cc1)C(=O)O` [Example 102B, (5S)-(3-(4-{4-amino-2-[1-(2-fluorobenzyl)-1H-pyrazolo[3,4-b]pyridin-3-yl]-5-methyl-6-oxo-6,7-dihydro-5H-pyrrolo[2,3-d]pyrimidin-5-yl}phenyl)propanoyl)-D-alanine], the Emax is reported as 100% and the EC50 is reported as 573 nM.
`CC[C@@H](NC(=O)CCc1ccc([C@]2(C)C(=O)Nc3nc(-c4nn(Cc5ccccc5F)c5ncccc45)nc(N)c32)cc1)C(=O)O` [Example 104B, (5S,2R)-2-(3-(4-{4-amino-2-[1-(2-fluorobenzyl)-1H-pyrazolo[3,4-b]pyridin-3-yl]-5-methyl-6-oxo-6,7-dihydro-5H-pyrrolo[2,3-d]pyrimidin-5-yl}phenyl)propanamido)butanoic acid] was tested, and the Emax was 106% and the EC50 was 1370 nM.
`CC1(c2nc(CCC(=O)O)co2)C(=O)Nc2nc(-c3nn(Cc4ccccc4F)c4cc(Cl)ccc34)nc(N)c21` (stereo not shown) [Example 50A, 3-(2-{4-amino-2-(6-chloro-1-(2-fluorobenzyl)-1H-indazol-3-yl)-5-methyl-6-oxo-6,7-dihydro-5H-pyrrolo[2,3-d]pyrimidin-5-yl}oxazol-4-yl)propanoic acid] gave an Emax of 98% and an EC50 of 407 nM.
In the case of `CC(C)(Cc1ccc(C2(C)C(=O)Nc3nc(-c4nn(CCC(F)(F)C(F)(F)F)c5ncccc45)nc(N)c32)nc1)C(=O)O` (stereo not shown) [Example 8B, 3-(6-{4-amino-5-methyl-6-oxo-2-[1-(3,3,4,4,4-pentafluoro-butyl)-1H-pyrazolo[3,4-b]pyridin-3-yl]-6,7-dihydro-5H-pyrrolo[2,3-d]pyrimidin-5-yl}pyridin-3-yl)-2,2-dimethyl-propanoic acid], the Emax is reported as 129% and the EC50 is reported as 1360 nM.
`CC1(c2nc(CC(=O)O)cs2)C(=O)Nc2nc(-c3nn(CCC(F)(F)C(F)(F)F)c4ncccc34)nc(N)c21` (stereo not shown) [Example 78A, (2-{4-Amino-5-methyl-6-oxo-2-[1-(3,3,4,4,4-pentafluorobutyl)-1H-pyrazolo[3,4-b]pyridin-3-yl]-6,7-dihydro-5H-pyrrolo[2,3-d]pyrimidin-5-yl}-1,3-thiazol-4-yl)acetic acid] was tested, and the Emax was 93%.
`CC1(c2nc(CCCC(=O)O)cs2)C(=O)Nc2nc(-c3nn(Cc4ccccc4F)c4ccccc34)nc(N)c21` (stereo not shown) [Example 55A, 4-(2-{4-amino-2-[1-(2-fluorobenzyl)-1H-indazol-3-yl]-5-methyl-6-oxo-6,7-dihydro-5H-pyrrolo[2,3-d]pyrimidin-5-yl}thiazol-4-yl)butanoic acid] showed an Emax of 105% and an EC50 of 432 nM.
`Cc1cccc(Cn2nc(-c3nc(N)c4c(n3)NC(=O)C4(C)c3nc(CC(C)(C)C(=O)O)co3)c3ccc(F)cc32)c1F` (stereo not shown) [Example 212A, 3-(2-{4-amino-2-[6-fluoro-1-(2-fluoro-3-methyl-benzyl)-1H-indazol-3-yl]-5-methyl-6-oxo-6,7-dihydro-5H-pyrrolo[2,3-d]pyrimidin-5-yl}-1,3-oxazol-4-yl)-2,2-dimethyl-propanoic acid] was tested, and the Emax was 135%.
In the case of `CC(C)(Cc1coc(C2(C)C(=O)Nc3nc(-c4nn(Cc5ccccc5F)c5ccc(F)cc45)nc(N)c32)n1)C(=O)O` (stereo not shown) [Example 72A, 3-(2-{4-amino-2-[5-fluoro-1-(2-fluorobenzyl)-1H-indazol-3-yl]-5-methyl-6-oxo-6,7-dihydro-5H-pyrrolo[2,3-d]pyrimidin-5-yl}oxazol-4-yl)-2,2-dimethylpropanoic acid], the Emax is reported as 80% and the EC50 is reported as 42 nM.
